Assay results from US20130136772A1, “REGULATION OF IMMUNE RESPONSE BY COLOCYNTHIN AND/OR ITS DERIVATIVES” (priority 2010, published 2013).
Several values for one entry are separate records, joined by “and”; a condition that tells them apart may be missing. Equal values may be shown once.

How the values were obtained:
IL-1 beta = assay: In vivo IL-1 beta estimation in serum of LPS challenged mice; design: species or system balb/c mice; conditions: 1, 2.5, 5 and 10 mg/kg oral for 6 days, LPS 1 mg/kg i.v., serum 90 min after LPS
Procedure: Invivo experiments were carried out using balb/c mice that were orally administrated with graded oral doses of AD-B-63B (1, 2.5, 5 and 10 mg/kg) for 6 days and challenged with LPS. Nitric oxide (NO) is an important mediator of diverse physiologic and pathologic processes, including many inflammatory diseases [Abramson S B, Amin A R, Clancy R M, Attur M, (2001). The role of nitric oxide in tissue destruction. Best Practice & Research Clinical Rheumatology; 15: 831-845]. Several lines of evidence implicate NO in the pathogenesis of inflammation. For example, rodents in animal models of arthritis generate abundant quantities of NO, as reflected in high levels of serum and urinary NO that develop in association with disease manifestations [Stefanovic-Racic M, Meyers K, Meschter C, Coffey J W, Hoffman R A, Evans C H, (1994). Monomethyl arginine, an inhibitor of nitric oxide synthase, suppresses the development of adjuvant arthritis in rats. Arthritis & Rheumatism; 37: 1062-1069.] [McCartney-Francis N, Allen J B, Mizel D E, Albina J E, Xie Q W, Nathan C F, Wahl S M, (1993). Suppression of arthritis by an inhibitor of nitric oxide synthase. Journal of Experimental Medicine; 178: 749-754.] [Weinberg J B, (1998). […] TNF-α, IL-1 beta and Nitric oxide production was evaluated by a commercial ELISA kits (R&D Systems) in serum from AD-B-63B treated mice, 90 min after LPS injection.

CD4+ T cells = assay: Lymphocyte immunophenotyping, CD4+ T cell population in SRBC immunised mice; assay type: in vivo, Swiss albino mice; conditions: graded doses; most significant suppression at 5 and 10 mg/kg vs sensitized control
Text: Immunophenotyping focuses on lymphocyte populations involved in acquired immunity. Specific molecules present on the cell surface defines characteristics of lymphocytes such as state of activation or functional capabilities. Murine monoclonal antibodies conjugated to a fluorochrome and directed against co-receptors CD4 and CD8 were used in a multi parametric flowcytometric assay to quantify the lymphocyte subsets associated with the cell-mediated immune response.
Estimation of T cell surface markers: On day 0, mice were immunized by injecting 200 μl of 5×10^9 SRBC/ml intraperitonially. Drug administration was carried out for 6 days including the day of immunization. Same amount of SRBC was used to challenge the animals on day 7. After 24 h of challenge, blood was taken from retro-orbital plexus of animals for estimation of CD4^+ and CD8^+ T cells. 100 μl of whole blood was taken in each tube and FITC (fluorescein isothiocyanate) labelled CD4+ and PE (phycoerythrin) labelled CD8+ monoclonal antibodies were added and mixed gently. Tubes were incubated in the dark for 30 min. at room temperature. Subsequently, 2 ml of 1× FACS lysing solution was added at room temperature with gentle mixing. Samples were again incubated at room temperature for 10 min. […]

[1] = tested on: Interleukin-1beta (IL-1β); assay: Extracellular IL-1β in LPS stimulated murine neutrophils (ELISA, in vitro); assay type: cell-based; conditions: for Concentration of IL-1β produced Mean ± S.E.: LPS 10 ng/ml, 4 hr
Procedure: Neutrophils were separated from whole blood by Histopaque gradient method (Histopaque-No. 1077). Cell count was adjusted to approximately 10^5/[…]. Lipopolysaccharide, at the concentration of 10 ng/ml was used as stimulus in in-vitro studies. […] Extracellular IL-1β was estimated through ELISA (Table 2) [Weir, R. E., Morgan, A. R., Britton, W. J., Butlin, C. R., Dockrell, H. M., 1994. Development of a whole blood assay to measure T cell responses to leprosy: a new tool for immuno-epidemiological fields studies of leprosy immunity. J. Immunol. Methods. 176, 93; Hussain, R., Kaleem, A., Shahid, F., Dojki, M., Jamil, B., Mehmood, H., Dawood, G., Dockrell, H., 2002. Cytokine profiles using whole blood assays can discriminate between tuberculosis patients and healthy endemic controls in a BCG-vaccinated population. J. Immunol. Methods. 264, 95-108]

[2] = tested on: humoral antibody response; assay: SRBC induced haemagglutination antibody titre (humoral immune response); assay type: in vivo, mice; conditions: for ANTIBODY TITRE MEAN ± S.E: blood on day 7
Procedure: 200 μl of 5×10^9 SRBC/ml was used to immunize the animals on day 0. Animals were treated with graded doses of AD-B-63B i.e., 1, 2.5, 5 and 10mg/kg p.o. for next six consecutive days. Blood samples were collected on day 7 for antibody titre assay. Haemagglutination antibody titre was determined following the microtitration technique described by Nelson and Midenhall, 1967. The value of highest serum dilution causing visible Haemagglutination was taken as titre. BSA saline alone served as control (Table 7).

Compound: CC(=O)OC(C)(C)/C=C/C(=O)[C@](C)(O)[C@H]1[C@H](O)C[C@@]2(C)[C@@H]3CC=C4[C@@H](C=C(O[C@@H]5O[C@H](CO)[C@@H](O)[C@H](O)[C@H]5O)C(=O)C4(C)C)[C@]3(C)C(=O)C[C@]12C [AD-B-63B, 2-O-β-D-glucopyranosyl cucurbitacin E]
- Level of serum IL-1 beta (IL-1 beta): significant reduction
- percentage of CD4+ T-cell population (CD4+ T cells): decrease
- % activity IL-1β expression against LPS control (decrease) ([1]; 0.5 μg/ml): 10.25↓ %
- Concentration of IL-1β produced Mean ± S.E. ([1]; 0.5 μg/ml): 120.91 ± 2.61 pg/mL
- % activity IL-1β expression against LPS control (decrease) ([1]; 1 μg/ml): 18.66↓ %
- Concentration of IL-1β produced Mean ± S.E. ([1]; 1 μg/ml): 109.58 ± 3.21 pg/mL
- % activity IL-1β expression against LPS control (decrease) ([1]; 5.0 μg/ml): 30.90% and 30.90↓ %
- Concentration of IL-1β produced Mean ± S.E. ([1]; 5.0 μg/ml): 93.08 ± 2.61 pg/mL
- % activity IL-1β expression against LPS control (decrease) ([1]; 10.0 μg/ml): 34.96% and 34.96↓ %
- Concentration of IL-1β produced Mean ± S.E. ([1]; 10.0 μg/ml): 87.61 ± 1.99 pg/mL
- Concentration of IL-1β produced Mean ± S.E. ([1]; […]): 106.66 ± 2.44 pg/mL
- % ACTIVITY (decrease in antibody titre) ([2]; 1 mg/kg p.o.): 13.47↓ %
- ANTIBODY TITRE MEAN ± S.E ([2]; 1 mg/kg p.o. for six days): 5.33 ± 0.45
- % ACTIVITY (decrease in antibody titre) ([2]; 5 mg/kg p.o.): 33.11↓ %
- ANTIBODY TITRE MEAN ± S.E ([2]; 5 mg/kg p.o. for six days): 4.12 ± 0.33
- % ACTIVITY (decrease in antibody titre) ([2]; 10 mg/kg p.o.): 35.06↓ %
- ANTIBODY TITRE MEAN ± S.E ([2]; 10 mg/kg p.o. for six days): 4.00 ± 0.31
- antibody synthesis (haemagglutination antibody titre) ([2]; significant decrease at 2.5, 5 and 10 mg/kg p.o.): inhibition of antibody synthesis
